Assay results taken from the supplement of paper PMC10307832.

Columns and labels:
Assay in all cases: relative viability (nuclei count vs DMSO), 5 days (fraction); higher = more cells survive
GSK126 + Tozasertib = compound: CC[C@H](C)N1C=C(C2=C(C=C(C=C21)C3=CN=C(C=C3)N4CCNCC4)C(=O)NCC5=C(C=C(NC5=O)C)C)C [GSK126] + Cc1cc(Nc2cc(N3CCN(C)CC3)nc(Sc3ccc(NC(=O)C4CC4)cc3)n2)n[nH]1 [Tozasertib] (partner 0.1 µM)
Method in brief: (§1)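 Five library-drug doses in √10 steps were combined with a fixed anchor-drug dose, or a single drug was given alone, by pin tool to lung cancer cell lines in 1536-well plates the day after seeding. Nuclei were stained and counted after 5 days. Relative viability is the nuclei count in treated wells over that in vehicle wells, taken as the median of duplicate plates.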

Carboplatin + Luminespib = compound: C1CC(C1)(C(=O)O)C(=O)O.[NH2-].[NH2-].[Pt+2] [Carboplatin] + CCNC(=O)c1noc(-c2cc(C(C)C)c(O)cc2O)c1-c1ccc(CN2CCOCC2)cc1 [Luminespib] (partner 0.01 µM)
Method in brief: as §1

GSK126 + AZD7762 = compound: CC[C@H](C)N1C=C(C2=C(C=C(C=C21)C3=CN=C(C=C3)N4CCNCC4)C(=O)NCC5=C(C=C(NC5=O)C)C)C [GSK126] + NC(=O)Nc1cc(-c2cccc(F)c2)sc1C(=O)N[C@H]1CCCNC1 [AZD7762] (partner 0.2 µM)
Method in brief: as §1

GSK126 + Phenformin = compound: CC[C@H](C)N1C=C(C2=C(C=C(C=C21)C3=CN=C(C=C3)N4CCNCC4)C(=O)NCC5=C(C=C(NC5=O)C)C)C [GSK126] + N=C(N)NC(=N)NCCc1ccccc1 [Phenformin] (partner 250 µM)
Method in brief: as §1

Cell Line | relative viability (GSK126 + Tozasertib; first compound 0.08 µM) | relative viability (GSK126 + Tozasertib; first compound 0.253 µM) | relative viability (GSK126 + Tozasertib; first compound 0.8 µM) | relative viability (GSK126 + Tozasertib; first compound 2.53 µM) | relative viability (GSK126 + Tozasertib; first compound 8 µM) | relative viability (Carboplatin + Luminespib; first compound 0.08 µM) | relative viability (Carboplatin + Luminespib; first compound 0.253 µM) | relative viability (Carboplatin + Luminespib; first compound 0.8 µM) | relative viability (Carboplatin + Luminespib; first compound 2.53 µM) | relative viability (Carboplatin + Luminespib; first compound 8 µM) | relative viability (GSK126 + AZD7762; first compound 0.08 µM) | relative viability (GSK126 + AZD7762; first compound 0.253 µM) | relative viability (GSK126 + AZD7762; first compound 0.8 µM) | relative viability (GSK126 + AZD7762; first compound 2.53 µM) | relative viability (GSK126 + AZD7762; first compound 8 µM) | relative viability (GSK126 + Phenformin; first compound 0.08 µM) | relative viability (GSK126 + Phenformin; first compound 0.253 µM) | relative viability (GSK126 + Phenformin; first compound 0.8 µM) | relative viability (GSK126 + Phenformin; first compound 2.53 µM) | relative viability (GSK126 + Phenformin; first compound 8 µM)
201T | 0.893 | 1.05 | 0.944 | 0.944 | 0.836 | 1.02 | 1.06 | 1.1 | 0.988 | 1 | 0.704 | 0.622 | 0.617 | 0.65 | 0.567 | 0.478 | 0.46 | 0.443 | 0.437 | 0.387
A549 |  |  |  |  |  |  |  |  |  |  |  |  |  |  |  | 0.245 | 0.169 | 0.126 | 0.131 | 0.114
A-427 | 0.227 | 0.245 | 0.189 | 0.226 | 0.162 | 0.934 | 0.928 | 0.928 | 0.803 | 0.976 | 0.82 | 0.703 | 0.667 | 0.825 | 0.542 | 0.362 | 0.34 | 0.311 | 0.346 | 0.258
ABC-1 | 0.159 | 0.135 | 0.217 | 0.167 | 0.17 | 1.17 | 0.704 | 0.451 | 0.435 | 0.273 | 0.587 | 1.04 | 0.95 | 0.886 | 0.916 | 0.243 | 0.262 | 0.268 | 0.244 | 0.242
BEN | 0.516 | 0.388 | 0.669 |  | 0.462 | 0.462 | 0.3 | 0.257 | 0.311 | 0.266 | 0.718 | 0.605 | 0.785 | 0.744 | 0.612 | 0.268 | 0.243 | 0.234 | 0.232 | 0.217
CAL-12T | 0.324 | 0.358 | 0.301 | 0.189 | 0.184 | 0.324 | 0.334 | 0.317 | 0.579 | 0.282 | 0.751 | 0.562 | 0.622 | 0.554 | 0.589 | 0.617 | 0.568 | 0.572 | 0.519 | 0.63
COR-L23 | 0.206 | 0.228 | 0.208 | 0.168 | 0.175 | 0.617 | 0.678 | 0.568 | 0.254 | 0.163 |  |  |  |  |  | 0.504 | 0.445 | 0.437 | 0.435 | 0.404
COR-L 105 | 0.355 | 0.31 | 0.402 | 0.312 | 0.264 | 1.04 | 0.851 | 0.677 | 0.667 | 0.648 |  |  |  |  |  | 0.5 | 0.547 | 0.596 | 0.529 | 0.513
ChaGo-K-1 | 0.237 | 0.238 | 0.216 | 0.233 | 0.201 | 0.774 | 0.589 | 0.399 | 0.398 | 0.297 | 0.881 | 0.87 | 0.836 | 0.893 | 0.874 | 0.541 | 0.535 | 0.446 | 0.415 | 0.431
EKVX | 0.411 | 0.443 | 0.4 | 0.355 | 0.326 | 0.903 | 0.864 |  | 0.695 | 0.727 | 0.648 | 0.747 | 0.753 | 0.787 | 0.672 | 0.229 | 0.252 | 0.246 | 0.218 | 0.231
EMC-BAC-2 | 0.306 | 0.266 | 0.154 | 0.238 | 0.249 | 1.22 | 1.15 | 1.15 | 1 | 0.751 | 1.05 | 1.1 | 1.1 | 1.09 | 1.04 | 0.606 | 0.528 | 0.505 | 0.483 | 0.482
EPLC-272H | 0.316 | 0.306 | 0.211 | 0.306 | 0.189 | 0.308 | 0.297 | 0.266 | 0.387 | 0.226 | 0.272 | 0.296 | 0.209 | 0.262 | 0.112 | 0.318 | 0.264 | 0.361 | 0.34 | 0.301
H3255 | 0.704 | 0.65 | 0.74 | 0.614 | 0.466 | 1.02 | 1.03 | 0.964 | 0.772 | 0.704 | 1.08 | 0.887 | 0.938 | 1.05 | 0.788 | 0.354 | 0.382 | 0.352 | 0.341 | 0.368
HARA | 0.131 | 0.0947 | 0.0975 | 0.0847 | 0.106 | 0.847 | 0.756 | 0.701 | 0.573 | 0.752 | 0.379 | 0.397 | 0.4 | 0.266 | 0.203 | 0.607 | 0.434 | 0.476 | 0.367 | 0.38
HCC-15 | 0.374 | 0.329 | 0.43 | 0.204 | 0.158 | 0.434 | 0.302 | 0.177 | 0.306 | 0.42 | 1.36 | 1.17 | 1.12 | 0.645 | 1.07 | 0.513 | 0.419 | 0.457 | 0.422 | 0.442
HCC-44 | 0.942 | 0.877 | 0.88 | 0.983 | 0.897 | 1.16 | 0.755 | 0.406 | 0.305 | 0.31 | 1.04 | 1.12 | 0.99 | 0.983 | 1.01 | 0.23 | 0.194 | 0.186 | 0.192 | 0.243
HCC-78 | 0.527 | 0.54 | 0.401 | 0.386 | 0.405 |  |  |  |  |  | 0.675 | 0.652 | 0.604 | 0.832 | 0.736 | 0.816 | 0.773 | 0.604 | 0.646 | 0.692
